# According to patent US6528528B2 (Warner-Lambert Company, priority 1997, dated 2003):
# Molecular target: T1, rabbit reticulocyte 15-LO (Oryctolagus cuniculus, UniProt P12530)
# T1 construct: Fifteen-lipoxygenase was obtained from phenylhydrazine-treated rabbits and purified per the method of Rapoport; from tissue; host or cells: reticulocytes of phenylhydrazine-treated rabbits
# T1 sequence (P12530 1-663): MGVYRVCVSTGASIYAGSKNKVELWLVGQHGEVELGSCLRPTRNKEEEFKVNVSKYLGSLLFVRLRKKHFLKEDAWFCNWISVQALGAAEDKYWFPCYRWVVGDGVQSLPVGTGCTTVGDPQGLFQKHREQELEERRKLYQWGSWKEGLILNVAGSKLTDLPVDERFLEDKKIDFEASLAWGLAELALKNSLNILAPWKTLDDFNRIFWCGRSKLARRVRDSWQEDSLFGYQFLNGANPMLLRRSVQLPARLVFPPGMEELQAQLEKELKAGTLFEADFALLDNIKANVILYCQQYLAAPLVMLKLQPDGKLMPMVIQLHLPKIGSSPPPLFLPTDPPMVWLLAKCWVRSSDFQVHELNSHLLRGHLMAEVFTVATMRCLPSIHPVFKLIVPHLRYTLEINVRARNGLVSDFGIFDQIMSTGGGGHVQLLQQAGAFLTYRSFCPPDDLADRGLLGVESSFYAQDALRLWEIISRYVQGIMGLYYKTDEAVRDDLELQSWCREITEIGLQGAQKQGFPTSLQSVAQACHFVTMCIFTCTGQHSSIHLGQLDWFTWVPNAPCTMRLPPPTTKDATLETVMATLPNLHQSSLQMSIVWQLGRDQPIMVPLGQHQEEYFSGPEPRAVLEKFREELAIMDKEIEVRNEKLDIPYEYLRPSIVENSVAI
# Assay: Rabbit Reticulocyte 15-LO Assay (h15LO)
# Format: biochemical
# Details: Table 1; 2U rabbit reticulocyte 15-LO, 174 μM linoleic acid, 15 minutes at 4° C.
# In short: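 Purified rabbit reticulocyte 15-LO (2U) incubated with inhibitor and 174 μM linoleic acid in PBS with 0.2% Na cholate for 15 minutes at 4° C. 13-HPODE quantified by peak area against 13-HODE standard curve; % inhibition relative to uninhibited reaction.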
row,IC50 [nM],Compound
1,2510,"CCc1ccc(C(=O)Nc2ccc(Cl)c(Cl)c2)cc1N [Example 18, 3-Amino-4-ethyl-N-(3,4-dichlorophenyl)-benzamide]"

# Same assay, conditions: Table 2; 2U rabbit reticulocyte 15-LO, 174 μM linoleic acid, 15 minutes at 4° C.
row,Compound,IC50 [nM]
1,"COc1ccc(C(=O)Nc2ccccc2)cc1NC(=S)Nc1cccc(Cl)c1 [Example 61, 3-[3-(3-Chlorophenyl)-thioureido]-4-methoxy-N-phenyl-benzamide]",11
2,"COc1ccc(C(=O)Nc2ccccc2)cc1NS(=O)(=O)c1cn(C)cn1 [Example 141, 3-(1-Methyl-1H-imidazole-4-sulfonylamino)-4-methoxy-N-phenyl-benzamide]",582
3,"COc1ccc(C(=O)Nc2ccccc2)cc1NS(=O)(=O)c1ccc(NC(C)=O)cc1 [Example 139, 3-(4-Acetylamino-benzenesulfonylamino)-4-methoxy-N-phenyl-benzamide]",104
4,"COc1ccc(C(=O)Nc2ccccc2)cc1NS(=O)(=O)c1ccc2ccccc2c1 [Example 140, 3-(Naphthalene-2-sulfonylamino)-4-methoxy-N-phenyl-benzamide]",39
5,"COc1ccc(C(=O)Nc2ccccc2)cc1NCc1cc(F)cc(F)c1 [Example 267, 4-Methoxy-3-(3,5-difluoro-benzylamino)-N-phenyl-benzamide]",198
6,"COc1ccc(C(=O)Nc2ccccc2)cc1NC(=S)Nc1ccc(Cl)c(C(F)(F)F)c1 [Example 73, 3-[3-(4-Chloro-3-trifluoromethylphenyl)-thioureido]-4-methoxy-N-phenyl-benzamide]",16
7,"COc1ccc(NC(=O)c2ccc(F)c(F)c2)cc1NC(=S)Nc1ccc(C(=O)O)cc1 [Example 168, 4-{3-[5-(3,4-Difluoro-benzoylamino)-2-methoxy-phenyl]-thioureido}-benzoic Acid acid]",109
8,"COc1ccc(C(=O)Nc2ccccc2)cc1NS(=O)(=O)C(C)C [Example 182, 3-(1-Methylethyl-1-sulfonylamino)-4-methoxy-N-phenyl-benzamide]",232
9,"COc1ccc(C(=O)Nc2ccc(F)c(F)c2)cc1NS(=O)(=O)c1cccc([N+](=O)[O-])c1 [Example 180, 3-(3-Nitro-benzenesufonylamino)-4-methoxy-N-(3,4-difluoro-phenyl)-benzamide]",36

# Results, then the molecule that gave them:
row,IC50 [nM],Compound
1,41,"COc1ccc(C(=O)Nc2ccccc2)cc1NC(=S)Nc1ccc(C(C)(C)C)cc1 [Example 64, 3-[3-(4-tert-Butyl-phenyl)-thioureido]-4-methoxy-N-phenyl-benzamide]"
2,28,"COc1ccc(C(=O)Nc2ccccc2)cc1NS(=O)(=O)c1cccc(C)c1 [Example 138, 3-(Toluene-3-sulfonylamino)-4-methoxy-N-phenyl-benzamide]"
3,129,"COc1ccc(C(=O)Nc2ccccc2)cc1NCc1cccc2ccccc12 [Example 217, 4-Methoxy-3-[(naphthalen-1-ylmethyl)-amino]-N-phenyl-benzamide]"
4,86,"COc1ccc(NC(=O)c2ccc(Cl)c(Cl)c2)cc1NCc1cccc(F)c1 [Example 244, 3,4-Dichloro-N-[3-(3-fluoro-benzylamino)-4-methoxy-phenyl]-benzamide]"
5,100,"COc1ccc(C(=O)Nc2ccc(Cl)c(Cl)c2)cc1Nc1cccc(C(F)(F)F)c1 [Example 47, 4-Methoxy-3-(3-trifluoromethyl-phenylamino)-N-(3,4-dichlorophenyl)-benzamide]"
6,40,"COc1ccc(C(=O)Nc2ccccc2)cc1CNC(=S)Nc1cc(Cl)cc(Cl)c1 [Example 247, 3-[3-(3,5-Dichloro-phenyl)-thioureidomethyl]-4-methoxy-N-phenyl-benzamide]"
7,224,"COc1ccc(C(=O)Nc2ccccc2)cc1NCc1cccc(Cl)c1 [Example 231, 3-(3-Chloro-benzylamino)-4-methoxy-N-phenyl-benzamide]"
8,302,COc1ccc(C(=O)Nc2ccccc2)cc1NCc1ccc2c(c1)OCCO2 [Example 271]
9,221,"COc1ccc(C(=O)Nc2ccccc2)cc1NCc1cccc(C(F)(F)F)c1 [Example 269, 4-Methoxy-3-(3-trifluoromethyl-benzylamino)-N-phenyl-benzamide]"
10,197,"COc1ccc(C(=O)Nc2ccccc2)cc1NCc1ccc2c(c1)OCO2 [Example 266, 3-[(Benzo[1,3]dioxol-5-ylmethyl)-amino]-4-methoxy-N-phenyl-benzamide]"

# Same assay, conditions: Table 2; concentration not given
row,Compound,"h15LO, value given as bare % [%]"
1,"Nc1cc(C(=O)Nc2ccccc2)ccc1OC(F)(F)F [Example 147, 3-Amino-4-trifluoromethoxy-N-phenyl-benzamide]",37.05
2,"Cc1ccc(C(=O)Nc2ccccc2)cc1NC(=O)c1cc(Cl)cc(Cl)c1 [Example 255, 3-[(3,5-Dichlorobenzoyl)amino]-4-methyl-N-phenyl-benzamide]",47
3,"COc1ccc(C(=O)Nc2ccccc2)cc1NCc1ccc([N+](=O)[O-])c(O)c1 [Example 228, 3-(3-Hydroxy-4-nitro-benzylamino)-4-methoxy-N-phenyl-benzamide]",92.92
4,"COc1ccc(C(=O)Nc2ccc(F)cc2)cc1NC(=S)Nc1ccc(C(=O)O)cc1 [Example 166, 4-{3-[5-(4-Fluoro-phenylcarbamoyl)-2-methoxy-phenyl]-thioureido}-benzoic Acid]",98.11
5,"COc1ccc(C(=O)Nc2ccc(F)c(F)c2)cc1NCc1cccc(C(=O)O)c1 [Example 230, 3-{[5-(3,4-Difluoro-phenylcarbamoyl)-2-methoxy-phenylamino]-methyl}-benzoic Acid]",92.57

# Further lines, results first:
row,"h15LO, value given as bare % [%]",Compound
1,52,"COc1ccc(NC(=O)Nc2ccc(Cl)c(Cl)c2)cc1NC(=S)Nc1ccc(Cl)c([N+](=O)[O-])c1 [Example 175, 1-{3-[3-(4-Chloro-3-nitro-phenyl)-thioureido]-4-methoxy-phenyl}-3-(3,4-dichloro-phenyl)-urea]"
2,98.02,"COc1ccc(NC(=O)c2ccc(F)c(F)c2)cc1NCc1cccc(O)c1 [Example 245, 3,4-Difluoro-N-[3-(3-hydroxy-benzylamino)-4-methoxy-phenyl]-benzamide]"
3,97.05,"COc1ccc(C(=O)Nc2ccc(F)cc2)cc1NS(=O)(=O)c1cccc([N+](=O)[O-])c1 [Example 190, 4-Methoxy-3-(3-nitro-benzenesulfonylamino)-N-(4-fluoro-phenyl)-benzamide]"
4,97.68,"COc1ccc(NC(=O)c2ccc(F)c(F)c2)cc1NS(=O)(=O)c1ccc(N)cc1 [Example 199, 3,4-Difluoro-N-[4-methoxy-3-(4-amino-benzenesulfonylamino)-phenyl]-benzamide]"
5,98.57,"COc1ccc(C(=O)Nc2ccc(Cl)c(Cl)c2)cc1NCc1cccs1 [Example 261, 4-Methoxy-3-[(thiophen-2-ylmethyl)-amino]-N-(3,4-dichloro-phenyl)-benzamide]"
6,64.09,"COc1ccc(C(=O)Nc2ccccc2)cc1NCc1ccc(-c2ccccc2)cc1 [Example 236, 3-[(Biphenyl-4-ylmethyl)-amino]-4-methoxy-N-phenyl-benzamide]"

# System: not given
# Assay: not given
# Details: not given
row,Compound,melting point
1,"CCc1ccc(C(=O)Nc2ccc(Cl)c(Cl)c2)cc1N [Example 18, 3-Amino-4-ethyl-N-(3,4-dichlorophenyl)-benzamide]",115 to 117 °C
2,"COc1ccc(C(=O)Nc2ccccc2)cc1NC(=S)Nc1cccc(Cl)c1 [Example 61, 3-[3-(3-Chlorophenyl)-thioureido]-4-methoxy-N-phenyl-benzamide]",165 to 168 °C
3,"COc1ccc(C(=O)Nc2ccccc2)cc1NS(=O)(=O)c1cn(C)cn1 [Example 141, 3-(1-Methyl-1H-imidazole-4-sulfonylamino)-4-methoxy-N-phenyl-benzamide]",250 to 252 °C
4,"Cc1ccc(C(=O)Nc2ccccc2)cc1N [Example 1, 3-Amino-4-methyl-N-phenyl-benzamide]",149 to 151 °C
5,"COc1ccc(C(=O)Nc2ccccc2)cc1NS(=O)(=O)c1ccc(NC(C)=O)cc1 [Example 139, 3-(4-Acetylamino-benzenesulfonylamino)-4-methoxy-N-phenyl-benzamide]",250 to 251 °C
6,"COc1ccc(NC(=O)Nc2ccccc2)cc1N [Example 24, 1-(3-Amino-4-methoxyphenyl)-3-phenyl-urea]",174 to 175 °C
7,"Nc1cc(NC(=O)c2ccc(Cl)c(Cl)c2)ccc1F [Example 22, 3,4-Dichloro-N-(3-amino-4-fluorophenyl)-benzamide]",151 to 153 °C
8,"COc1ccc(C(=O)Nc2cccnc2)cc1NC(=S)Nc1ccc(Cl)c(Cl)c1 [Example 100, 3-[3-(3,4-Dichlorophenyl)-thioureido]-4-methoxy-N-pyridin-3-yl-benzamide]",179 to 180 °C
9,"Nc1cc(C(=O)Nc2ccccc2)ccc1Cl [Example 13, 3-Amino-4-chloro-N-phenyl-benzamide]",194 to 197 °C
10,"COc1ccc(C(=O)Nc2ccc(Cl)c(Cl)c2)cc1NS(=O)(=O)c1cc(Cl)cc(Cl)c1 [Example 117, 3-(3,5-Dichloro-benzenesulfonylamino)-4-methoxy-N-(3,4-dichlorophenyl)-benzamide]",> 230 °C (dec.)

# Second part, the molecule after the results:
row,melting point,Compound
1,198 to 200 °C,"COc1ccc(C(=O)Nc2ccccc2)cc1NC(=S)Nc1ccc(C(C)(C)C)cc1 [Example 64, 3-[3-(4-tert-Butyl-phenyl)-thioureido]-4-methoxy-N-phenyl-benzamide]"
2,195 to 197 °C,"COc1ccc(C(=O)Nc2ccccc2)cc1NS(=O)(=O)c1cccc(C)c1 [Example 138, 3-(Toluene-3-sulfonylamino)-4-methoxy-N-phenyl-benzamide]"
3,209 to 210 °C,"COc1ccc(NC(=O)c2ccccc2)cc1Nc1ccccc1 [Example 49, N-[3-(Phenylamino)-4-methoxy-phenyl]-benzamide]"
4,188 to 189 °C,"COc1ccc(C(=O)Nc2cc(C)cc(C)c2)cc1NC(=S)Nc1cccc(C)c1 [Example 103, N-(3,5-Dimethylphenyl)-4-methoxy-3-(3-m-tolyl-thioureido)-benzamide]"
